Experiment: recombinant barcode read abundance after kanamycin selection (control-corrected) (log10(CPM+1)); higher = more efficient recombination; sequences stand for … in AGTGCAGAGAAAATCGGCCAGTTTTCTCTGCCTGCAGTCCGCATGCCGT…AGATTTATGCAGCGGACTGCCTTTCTCCCAAAGTGATAAACCGGACAGTATCATGGACCGGTTTTCCCGGTAATCCGTATTTGCAAGGTTGGTTTCACT; site = the 11-nt target
Method in brief: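 A vector carrying a T7-inducible recombinase and the last 73 bp of the bridge RNA received, by Gibson cloning, oligos encoding a promoter, target, barcode and the first 104 bridge RNA bases under J23119. The pooled constructs entered E. coli together with a donor plasmid by electroporation. Selection used chloramphenicol/ampicillin/kanamycin with 0.1 mM IPTG, with chloramphenicol/ampicillin LB agar as the control, each in two replicates. Recombination efficiency is the averaged, control-corrected counts-per-million of barcodes at recombinant junctions, reported as log10(CPM+1).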
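Note: IS621 recombinase and bridge RNA in Escherichia coli cells.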

TTCCGAGCTTGGGTTCTAACCTGTTGCGG (site TGTCGAGCTCC)
recombinant barcode read abundance (log10): 0.0848

TTCCGAGCTTGGGTTCTAACCTGTTGCGG (site TTCCGAGCTCC)
recombinant barcode read abundance (log10): 1.01

TTCGAAACTTGGGTTCTAACCTGTTGCGT (site TCCGAGACTAC)
recombinant barcode read abundance (log10): 0.221

TTCGAAACTTGGGTTCTAACCTGTTGCGT (site TTCGAAACTAC)
recombinant barcode read abundance (log10): 1.46

TTCGCATCTTGGGTTCTAACCTGTTGCTT (site CCAAGGCCTCG)
recombinant barcode read abundance (log10): 0.209

TTCGCATCTTGGGTTCTAACCTGTTGCTT (site TTCGCATCTAA)
recombinant barcode read abundance (log10): 0.178

TTCGTAGCTTGGGTTCTAACCTGTTGCCT (site TTCGTAGCTAC)
recombinant barcode read abundance (log10): 0.0736

TTCGTAGCTTGGGTTCTAACCTGTTGCCT (site TTCGTAGCTAG)
recombinant barcode read abundance (log10): 1.22

TTCGTTGCTTGGGTTCTAACCTGTTGCCT (site ATCGTTGCTAG)
recombinant barcode read abundance (log10): 0.0494

TTCGTTGCTTGGGTTCTAACCTGTTGCCT (site CTCGTTGCTAG)
recombinant barcode read abundance (log10): 0.41

TTCGTTGCTTGGGTTCTAACCTGTTGCCT (site GTCGTTGCTAG)
recombinant barcode read abundance (log10): 0.0105

TTCGTTGCTTGGGTTCTAACCTGTTGCCT (site TTCGTTGCTAG)
recombinant barcode read abundance (log10): 0.302

TTCTAGACTTGGGTTCTAACCTGTTGCGG (site TCCTAGACTCC)
recombinant barcode read abundance (log10): 0.189

TTCTAGACTTGGGTTCTAACCTGTTGCGG (site TTCTAGACTCC)
recombinant barcode read abundance (log10): 1.94

TTCTATCCTTGGGTTCTAACCTGTTGCCT (site TTCTATCCTAG)
recombinant barcode read abundance (log10): 0.486

TTCTATCCTTGGGTTCTAACCTGTTGCCT (site TTCTCTCCTAG)
recombinant barcode read abundance (log10): 0.286

TTCTATCCTTGGGTTCTAACCTGTTGCCT (site TTCTGTCCTAG)
recombinant barcode read abundance (log10): 0.0469

TTCTATCCTTGGGTTCTAACCTGTTGCCT (site TTCTTTCCTAG)
recombinant barcode read abundance (log10): 0.094

TTCTATGCTTGGGTTCTAACCTGTTGCGT (site AAGCGCTCTCA)
recombinant barcode read abundance (log10): 0.0654

TTCTATGCTTGGGTTCTAACCTGTTGCGT (site TTCTATGCTAC)
recombinant barcode read abundance (log10): 0.131

TTCTGAGCTTGGGTTCTAACCTGTTGCCT (site TTCTGAGCTAG)
recombinant barcode read abundance (log10): 0.184

TTCTGAGCTTGGGTTCTAACCTGTTGCCT (site TTCTGCGCTAG)
recombinant barcode read abundance (log10): 0.0635

TTCTGAGCTTGGGTTCTAACCTGTTGCCT (site TTCTGGGCTAG)
recombinant barcode read abundance (log10): 0.115

TTCTGAGCTTGGGTTCTAACCTGTTGCCT (site TTCTGTGCTAG)
recombinant barcode read abundance (log10): 0.0128

TTCTGTGCTTGGGTTCTAACCTGTTGCCT (site TTCTGAGCTAG)
recombinant barcode read abundance (log10): 0.0672

TTCTGTGCTTGGGTTCTAACCTGTTGCCT (site TTCTGCGCTAG)
recombinant barcode read abundance (log10): 0.0701

TTCTGTGCTTGGGTTCTAACCTGTTGCCT (site TTCTGGGCTAG)
recombinant barcode read abundance (log10): 0.0555

TTCTGTGCTTGGGTTCTAACCTGTTGCCT (site TTCTGTGCTAG)
recombinant barcode read abundance (log10): 0.0428

TTGAAATCTTGGGTTCTAACCTGTTGCCT (site TTGAAATCTAG)
recombinant barcode read abundance (log10): 0.131

TTGAAATCTTGGGTTCTAACCTGTTGCCT (site TTGACATCTAG)
recombinant barcode read abundance (log10): 0.0533

TTGAAATCTTGGGTTCTAACCTGTTGCCT (site TTGAGATCTAG)
recombinant barcode read abundance (log10): 0.0296

TTGAAATCTTGGGTTCTAACCTGTTGCCT (site TTGATATCTAG)
recombinant barcode read abundance (log10): 0.0563

TTGAACTCTTGGGTTCTAACCTGTTGCCT (site TTGAACTCTAG)
recombinant barcode read abundance (log10): 1.18

TTGAACTCTTGGGTTCTAACCTGTTGCCT (site TTGAGCTCTAG)
recombinant barcode read abundance (log10): 0.0203

TTGAATCCTTGGGTTCTAACCTGTTGCCA (site TTGAATCCTTG)
recombinant barcode read abundance (log10): 0.71

TTGAATCCTTGGGTTCTAACCTGTTGCCA (site TTGAGTCCTTA)
recombinant barcode read abundance (log10): 0.0534

TTGACATCTTGGGTTCTAACCTGTTGCCT (site TTGAAATCTAG)
recombinant barcode read abundance (log10): 0.179

TTGACATCTTGGGTTCTAACCTGTTGCCT (site TTGACATCTAG)
recombinant barcode read abundance (log10): 0.216

TTGACATCTTGGGTTCTAACCTGTTGCCT (site TTGAGATCTAG)
recombinant barcode read abundance (log10): 0.0391

TTGACATCTTGGGTTCTAACCTGTTGCCT (site TTGATATCTAG)
recombinant barcode read abundance (log10): 0.147

TTGACGACTTGGGTTCTAACCTGTTGCCG (site CACCGAGCTTA)
recombinant barcode read abundance (log10): 0.149

TTGACGACTTGGGTTCTAACCTGTTGCCG (site TTGACGACTCG)
recombinant barcode read abundance (log10): 0.452

TTGAGATCTTGGGTTCTAACCTGTTGCCT (site TTGAAATCTAG)
recombinant barcode read abundance (log10): 0.0577

TTGAGATCTTGGGTTCTAACCTGTTGCCT (site TTGACATCTAG)
recombinant barcode read abundance (log10): 0

TTGAGATCTTGGGTTCTAACCTGTTGCCT (site TTGAGATCTAG)
recombinant barcode read abundance (log10): 0.0355

TTGAGATCTTGGGTTCTAACCTGTTGCCT (site TTGATATCTAG)
recombinant barcode read abundance (log10): 0.264

TTGAGCTCTTGGGTTCTAACCTGTTGCCT (site TTGAACTCTAG)
recombinant barcode read abundance (log10): 0.0507

TTGAGCTCTTGGGTTCTAACCTGTTGCCT (site TTGAGCTCTAG)
recombinant barcode read abundance (log10): 0.952

TTGAGGACTTGGGTTCTAACCTGTTGCCA (site TTGAGGACTAC)
recombinant barcode read abundance (log10): 1.14

TTGAGGACTTGGGTTCTAACCTGTTGCCA (site TTGAGGACTTG)
recombinant barcode read abundance (log10): 0.943

TTGAGTACTTGGGTTCTAACCTGTTGCCG (site TTGAGTACTCG)
recombinant barcode read abundance (log10): 0.577

TTGAGTACTTGGGTTCTAACCTGTTGCCG (site TTGATTACTTG)
recombinant barcode read abundance (log10): 0.0556

TTGAGTCCTTGGGTTCTAACCTGTTGCTA (site TTGAATCCTTG)
recombinant barcode read abundance (log10): 0.037

TTGAGTCCTTGGGTTCTAACCTGTTGCTA (site TTGAGTCCTTA)
recombinant barcode read abundance (log10): 0.488

TTGCATCCTTGGGTTCTAACCTGTTGCAG (site CGTTGGTCTTC)
recombinant barcode read abundance (log10): 0.0529

TTGCATCCTTGGGTTCTAACCTGTTGCAG (site TTGCATCCTCT)
recombinant barcode read abundance (log10): 0.802

TTGCCAACTTGGGTTCTAACCTGTTGCCT (site TTGCAAACTAG)
recombinant barcode read abundance (log10): 0.146

TTGCCAACTTGGGTTCTAACCTGTTGCCT (site TTGCCAACTAG)
recombinant barcode read abundance (log10): 0.332

TTGCCAACTTGGGTTCTAACCTGTTGCCT (site TTGCGAACTAG)
recombinant barcode read abundance (log10): 0.0564

TTGCCAACTTGGGTTCTAACCTGTTGCCT (site TTGCTAACTAG)
recombinant barcode read abundance (log10): 0.00831

TTGCCGACTTGGGTTCTAACCTGTTGCCT (site TTGCCGACTAG)
recombinant barcode read abundance (log10): 0.716

TTGCCGACTTGGGTTCTAACCTGTTGCCT (site TTGCCTACTAG)
recombinant barcode read abundance (log10): 0

TTGCCTACTTGGGTTCTAACCTGTTGCCT (site TTGCCGACTAG)
recombinant barcode read abundance (log10): 0.0577

TTGCCTACTTGGGTTCTAACCTGTTGCCT (site TTGCCTACTAG)
recombinant barcode read abundance (log10): 0.339

TTGCGAGCTTGGGTTCTAACCTGTTGCAT (site TTGCGAGCTAT)
recombinant barcode read abundance (log10): 1.82

TTGCGAGCTTGGGTTCTAACCTGTTGCAT (site TTGCGTGCTAA)
recombinant barcode read abundance (log10): 0.0906

TTGGATCCTTGGGTTCTAACCTGTTGCTT (site TTGGATCCTAA)
recombinant barcode read abundance (log10): 1.87

TTGGATCCTTGGGTTCTAACCTGTTGCTT (site TTGGATCCTAG)
recombinant barcode read abundance (log10): 1.85

TTGGGCACTTGGGTTCTAACCTGTTGCCT (site TTGGACACTAG)
recombinant barcode read abundance (log10): 0.196

TTGGGCACTTGGGTTCTAACCTGTTGCCT (site TTGGCCACTAG)
recombinant barcode read abundance (log10): 0.176

TTGGGCACTTGGGTTCTAACCTGTTGCCT (site TTGGGCACTAG)
recombinant barcode read abundance (log10): 0.0687

TTGGGCACTTGGGTTCTAACCTGTTGCCT (site TTGGTCACTAG)
recombinant barcode read abundance (log10): 0.103

TTGGGTGCTTGGGTTCTAACCTGTTGCAT (site TAGGCTGCTAT)
recombinant barcode read abundance (log10): 0.16

TTGGGTGCTTGGGTTCTAACCTGTTGCAT (site TTGGGTGCTAT)
recombinant barcode read abundance (log10): 1.3

TTGGGTTCTTGGGTTCTAACCTGTTGCCT (site TTGGGTGCTCG)
recombinant barcode read abundance (log10): 0.0625

TTGGGTTCTTGGGTTCTAACCTGTTGCCT (site TTGGGTTCTAG)
recombinant barcode read abundance (log10): 0.767

TTGTACACTTGGGTTCTAACCTGTTGCTC (site CAACTAGCTAT)
recombinant barcode read abundance (log10): 0.043

Reference: the supplement of paper PMC11208160
